Experimental data published in patent publication US20240226123A9, “USE OF CANNABIDIVARIN IN THE TREATMENT OF SEIZURES ASSOCIATED WITH CANINE EPILEPSY” (GW Research Limited, priority 2021, published 2024).

Tests used:
[1] = test system: spike-and-wave discharges induced by gamma-butyrolactone (GBL); assay: GBL induced absence seizure model, quantified EEG (spectral power, cortex); assay type: in vivo, beagle dogs
Procedure: The experiment was carried out on nine male non-naïve beagle dogs, weighing 9-15 kg. All animals were housed in a box or in a kennel under natural lighting with restricted access to food (approx. 300 g/animal/day) and unlimited access to water.
Dogs were implanted with an Emka Technologies telemetric device. Following an incision in the lateral neck region, the telemetric device was introduced into a pouch under the skin. The positive and negative biopotential electrodes were coiled into a loop and tunnelled subcutaneously to protrude into the opened scalp incision. The skin incisions then were closed.
Following a sagittal incision of the scalp, the top of the skull was prepared for implantation. The incision was performed between bregma and lambda sutures in order to place electrodes over the parietal cortex. Three small holes were drilled into the skull, on the right hemisphere. The tips of the electrodes were then pushed through the holes through the skull onto the dura mater. The electrodes were connected to small plugs, placed into a connector and the whole assembly was secured on skull with dental cement. The skin incisions then were closed using aseptic chirurgical thread.
Approximately 2 weeks later, the dogs were placed in a sling for the experiment.
For EEG recording, a telemetry receiver was located nearby the animal to record EEG.
All generated data was acquired and analysed using the EMKA Technologies software. The quality of the EEG signals was checked before launching EEG recording.
Before the experiment, EEG signals were recorded during a few minutes in baseline conditions to check the quality of the signals.
The baseline EEG recording was done for each dog, one day before the test session and lasted 40 minutes. Baseline and test sessions were done at the same time of the day for each dog.
EEG signals were recorded during 40 minutes to evaluate spike-and-wave discharges. The latency to observe spike-and-wave discharges was determined off-line on EEG signals.
The differential outputs between the 2 electrodes at each implantation site were digitized on-line at a sampling rate of 500 Hz/channel and the data stored in raw data files.
EEG was quantitatively analysed by spectral analysis using a Fast Fourier Transform algorithm. Spectra were calculated from epochs of 4.1-second duration. The mean total spectral power between 1.5 and 64 Hz and the power in 6 sub-frequency bands per brain structure recorded (1.5-4 (delta), 5-8 (theta), 8.5-12.5 (alpha), 13-35 (beta), 36-64 (gamma) and 3-6 Hz) was calculated on four 10-minute periods (from 0 to 10, 10 to 20, 20 to 30 and 30 to 40 minutes during baseline and test sessions).
Before being submitted to further analysis, all spectra containing recording artefacts found on visual inspection of the EEG traces were eliminated. Then the averages of 10-minute intervals of the verified individual spectra were saved into data files which then were transferred into Excel calculation sheets.

[2] = test system: pilocarpine-induced seizures; details: rodent seizure models; cited from earlier work
[3] = test system: postnatal day 10 and 20 rats; details: cited from earlier work
focal seizures in humans = details: Phase II, placebo group similar; cited from earlier work
[4] = Adverse effects observed in dogs of the GBL model studies
[5] = CBDV 100 mg/kg p.o. 4 hours before GBL, across all four time periods

| Structure (SMILES) | power of high frequency bands (beta and gamma) [1, 5] | spectral power of lower frequency bands (delta, theta and alpha) [1, 5] | spectral power on delta frequency bands ([1]; CBDV 100 mg/kg p.o. 4 hours before GBL, time-interval 30-40 minutes, vs vehicle controls, p<0.05) | spectral power on 3-6 Hz frequency band ([1]; CBDV 100 mg/kg p.o., following GBL administration, vs vehicle control) | effect in pilocarpine-induced seizures [2] | anticonvulsant action [3] | reductions in focal seizures (focal seizures in humans) | power of high frequency bands (beta and gamma) ([1]; Diazepam 2 mg/kg p.o., across all four time periods) | adverse effects observed ([4]; diazepam 4 mg/kg, three dogs, during the test, after GBL administration) | adverse effects observed ([4]; diazepam 6 mg/kg, two dogs, GBL could not be administered) |
| --- | --- | --- | --- | --- | --- | --- | --- | --- | --- | --- |
| C=C(C)[C@@H]1CCC(C)=C[C@H]1c1c(O)cc(CCC)cc1O [CBDV, cannabidivarin] | increased | decreased | significantly decreased | lowered | not found to have any effect | age and model-specific profile of anticonvulsant action | approximately 40% |  |  |  |
| CN1C(=O)CN=C(c2ccccc2)c2cc(Cl)ccc21 [Diazepam] |  |  |  |  |  |  |  | increased | Motor incoordination and psychotic effects (stereotypies, involuntary movements, barks) | the symptoms were stronger |
